According to PubChem BioAssay AID330 (DTP/NCI, 2004):
“And” between values parts separate entries of the source, which are not always exact repeats. Equal values may be shown once. Toxic doses and inconclusive results are not listed.

System: P388 leukemia ip, CD2F1 mice, survival T/C
Test: NCI In Vivo Anticancer Drug Screen. Data for tumor model P388 Leukemia (intraperitoneal) in CD2F1 (CDF1) mice
Details: endpoint: median survival time, higher = longer survival
Method in brief: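 Mice carrying the transplanted tumor received test compound or vehicle. Survival was recorded in each group, and the value is the treated-group measurement divided by that of the vehicle-treated control group.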

[1] = dose: 60.0 mg/kg/injection, schedule: Q01DX005 (ip), vehicle: saline with Tween-80
[2] = dose: 120.0 mg/kg/injection, schedule: Q01DX005 (ip), vehicle: saline with Tween-80
[3] = dose: 50.0 mg/kg/injection, schedule: Q01DX009 (ip), vehicle: saline with Tween-80
[4] = dose: 100.0 mg/kg/injection, schedule: Q01DX009 (ip), vehicle: saline with Tween-80
[5] = dose: 200.0 mg/kg/injection, schedule: Q01DX009 (ip), vehicle: saline with Tween-80
[6] = dose: 60.0 mg/kg/injection, schedule: Q01DX005 (ip), vehicle: saline
[7] = dose: 120.0 mg/kg/injection, schedule: Q01DX005 (ip), vehicle: saline
[8] = dose: 50.0 mg/kg/injection, schedule: Q01DX005 (ip), vehicle: saline with Tween-80
[9] = dose: 100.0 mg/kg/injection, schedule: Q01DX005 (ip), vehicle: saline with Tween-80
[10] = dose: 50.0 mg/kg/injection, schedule: Q01DX005 (ip), vehicle: Klucel (hydroxypropylcellulose) (HPC)
[11] = dose: 100.0 mg/kg/injection, schedule: Q01DX005 (ip), vehicle: Klucel (hydroxypropylcellulose) (HPC)
[12] = dose: 200.0 mg/kg/injection, schedule: Q01DX005 (ip), vehicle: Klucel (hydroxypropylcellulose) (HPC)

CCOC(=O)C1C/C(=N\O)c2ccc(OC)c(OC)c2C1 (stereo unspecified)
T/C (dose: 25.0 mg/kg/injection, schedule: Q01DX009 (ip), vehicle: other): 101 % of control | T/C (dose: 50.0 mg/kg/injection, schedule: Q01DX009 (ip), vehicle: other): 91 % of control | T/C (dose: 100.0 mg/kg/injection, schedule: Q01DX009 (ip), vehicle: other): 93 % of control | T/C (dose: 200.0 mg/kg/injection, schedule: Q01DX009 (ip), vehicle: other): 97 % of control | T/C (dose: 400.0 mg/kg/injection, schedule: Q01DX009 (ip), vehicle: other): 100 % of control

S=C(N/N=C/c1c[nH]c2ccccc12)NC12CC3CC(CC(C3)C1)C2
T/C [1]: 101 % of control | T/C [2]: 90 % of control

CC(C)(C)n1nc(C2CC2)cc1NC(=O)Nc1ccc(Cl)cc1
T/C [1]: 93 % of control | T/C [2]: 94 % of control | T/C (dose: 240.0 mg/kg/injection, schedule: Q01DX005 (ip), vehicle: saline with Tween-80): 91 % of control

O=C(Nc1ccc(NC2=NCCN2)cc1)c1ccc(C(=O)Nc2ccc(NC3=NCCN3)cc2)c([N+](=O)[O-])c1
T/C (dose: 1.56 mg/kg/injection, schedule: Q01DX005 (ip), vehicle: Klucel (hydroxypropylcellulose) (HPC)): 116 % of control | T/C (dose: 6.25 mg/kg/injection, schedule: Q01DX005 (ip), vehicle: Klucel (hydroxypropylcellulose) (HPC)): 158 % of control | T/C (dose: 12.5 mg/kg/injection, schedule: Q01DX005 (ip), vehicle: Klucel (hydroxypropylcellulose) (HPC)): 158 % of control

O=[N+]([O-])C1C2C=CC(C2)C1C(Cl)(Cl)Cl (stereo unspecified)
T/C (dose: 0.19 mg/kg/injection, schedule: Q01DX009 (ip), vehicle: saline with Tween-80): 101 % of control | T/C (dose: 0.39 mg/kg/injection, schedule: Q01DX009 (ip), vehicle: saline with Tween-80): 100 % of control | T/C (dose: 0.78 mg/kg/injection, schedule: Q01DX009 (ip), vehicle: saline with Tween-80): 98 % of control and 99 % of control

Cc1ccc(/C=C/C(=O)C(CN(C)C)CN(C)C)cc1C
T/C (dose: 6.25 mg/kg/injection, schedule: Q01DX005 (ip), vehicle: saline with Tween-80): 100 % of control | T/C (dose: 12.5 mg/kg/injection, schedule: Q01DX005 (ip), vehicle: saline with Tween-80): 109 % of control

CC(C)C1=CC2=C[C@H](O)[C@H]3C(C)(C)CCC[C@]3(C)C2=C(O)C1=O
T/C (dose: 1.25 mg/kg/injection, schedule: Q01DX009 (ip), vehicle: saline with Tween-80): 109 % of control and 91 % of control | T/C (dose: 1.25 mg/kg/injection, schedule: Q01DX009 (ip), vehicle: suspension in saline): 103 % of control | T/C (dose: 1.75 mg/kg/injection, schedule: Q01DX009 (ip), vehicle: saline with Tween-80): 108 % of control | T/C (dose: 2.5 mg/kg/injection, schedule: Q01DX009 (ip), vehicle: saline with Tween-80): 100 % of control and 111 % of control and 123 % of control | T/C (dose: 2.5 mg/kg/injection, schedule: Q01DX009 (ip), vehicle: suspension in saline): 109 % of control | T/C (dose: 5.0 mg/kg/injection, schedule: Q01DX009 (ip), vehicle: saline with Tween-80): 104 % of control and 108 % of control and 111 % of control | T/C (dose: 5.0 mg/kg/injection, schedule: Q01DX009 (ip), vehicle: suspension in saline): 100 % of control | T/C (dose: 10.0 mg/kg/injection, schedule: Q01DX009 (ip), vehicle: saline with Tween-80): 107 % of control and 109 % of control and 113 % of control | T/C (dose: 10.0 mg/kg/injection, schedule: Q01DX009 (ip), vehicle: suspension in saline): 113 % of control | T/C (dose: 20.0 mg/kg/injection, schedule: Q01DX009 (ip), vehicle: suspension in saline): 109 % of control

Nc1ccc2c(n1)NCC/C2=N\Nc1ccccc1
T/C [3]: 115 % of control | T/C [4]: 96 % of control | T/C [5]: 100 % of control

Cc1oc2ccccc2c(=O)c1CN1CCN(C)CC1
T/C [6]: 101 % of control | T/C [7]: 103 % of control

C[Si](C)(C)CN(Cc1ccccc1)C(=O)c1ccccc1[N+](=O)[O-]
T/C [8]: 105 % of control | T/C [9]: 98 % of control | T/C (dose: 200.0 mg/kg/injection, schedule: Q01DX005 (ip), vehicle: saline with Tween-80): 103 % of control

CCN(CC)CCCNc1cccc2c(SCc3ccccc3)ccnc12
T/C [8]: 112 % of control | T/C [9]: 102 % of control

O=C(CCCc1ccc(N(CCCl)CCCl)cc1)NCC(O)C(O)C(O)C(O)CO (stereo unspecified)
T/C (dose: 15.0 mg/kg/injection, schedule: Q01DX005 (ip), vehicle: saline with Tween-80): 187 % of control | T/C (dose: 30.0 mg/kg/injection, schedule: Q01DX005 (ip), vehicle: saline with Tween-80): 201 % of control and 206 % of control | T/C [1]: 235 % of control and 250 % of control

CC1(C)c2ccccc2N2C(c3ccccc3)=NN(c3ccccc3)C21C (stereo unspecified)
T/C [1]: 100 % of control | T/C [2]: 100 % of control

Cc1ccc(N2C(=O)CCSC2=S)cc1Cl
T/C (dose: 50.0 mg/kg/injection, schedule: Q01DX009 (ip), vehicle: Klucel (hydroxypropylcellulose) (HPC)): 115 % of control | T/C (dose: 50.0 mg/kg/injection, schedule: Q01DX009 (ip), vehicle: suspension in saline): 87 % of control | T/C (dose: 100.0 mg/kg/injection, schedule: Q01DX009 (ip), vehicle: Klucel (hydroxypropylcellulose) (HPC)): 114 % of control and 122 % of control | T/C (dose: 100.0 mg/kg/injection, schedule: Q01DX009 (ip), vehicle: suspension in saline): 90 % of control | T/C (dose: 200.0 mg/kg/injection, schedule: Q01DX009 (ip), vehicle: Klucel (hydroxypropylcellulose) (HPC)): 86 % of control | T/C (dose: 200.0 mg/kg/injection, schedule: Q01DX009 (ip), vehicle: suspension in saline): 99 % of control

CC(=O)Nc1ccc2c(c1)N(O)C(=O)C2(C)C
T/C [10]: 97 % of control | T/C [11]: 95 % of control | T/C [12]: 102 % of control

Nc1nnc2nc(CC(=O)c3ccc(F)cc3)c(CC(=O)c3ccc(F)cc3)nn12
T/C [6]: 104 % of control | T/C [7]: 106 % of control | T/C (dose: 240.0 mg/kg/injection, schedule: Q01DX005 (ip), vehicle: saline): 100 % of control

CC(C)(C)c1cc2c3c(c1)C(C(F)(F)F)(C(F)(F)F)OS3(O)OC2(C(F)(F)F)C(F)(F)F
T/C (dose: 12.5 mg/kg/injection, schedule: Q01DX005 (ip), vehicle: suspension in saline): 103 % of control | T/C (dose: 25.0 mg/kg/injection, schedule: Q01DX005 (ip), vehicle: suspension in saline): 108 % of control

CC(C)(C)OC(=O)C(C(=O)OC(C)(C)C)=C1C(=O)OCC1(C)C
T/C (dose: 100.0 mg/kg/injection, schedule: Q04DX003 (ip), vehicle: saline): 95 % of control | T/C (dose: 200.0 mg/kg/injection, schedule: Q04DX003 (ip), vehicle: saline): 103 % of control | T/C (dose: 400.0 mg/kg/injection, schedule: Q04DX003 (ip), vehicle: saline): 98 % of control

CC1(C)c2ccccc2-c2nc3ccccc3nc2C1O (stereo unspecified)
T/C (dose: 100.0 mg/kg/injection, schedule: Q04DX003 (ip), vehicle: Klucel (hydroxypropylcellulose) (HPC)): 110 % of control | T/C (dose: 200.0 mg/kg/injection, schedule: Q04DX003 (ip), vehicle: Klucel (hydroxypropylcellulose) (HPC)): 99 % of control | T/C (dose: 400.0 mg/kg/injection, schedule: Q04DX003 (ip), vehicle: Klucel (hydroxypropylcellulose) (HPC)): 112 % of control

COC(=O)C(Sc1ccc(Cl)cc1)C1SC(=S)N(C)C1=O (stereo unspecified)
T/C (dose: 12.5 mg/kg/injection, schedule: Q01DX009 (ip), vehicle: saline with Tween-80): 96 % of control | T/C (dose: 25.0 mg/kg/injection, schedule: Q01DX009 (ip), vehicle: saline with Tween-80): 116 % of control and 88 % of control | T/C [3]: 104 % of control and 112 % of control | T/C [4]: 103 % of control and 107 % of control

N[C@H]1CN([C@@H](C(=O)O)c2ccc(O)cc2)C1=O
T/C [10]: 105 % of control | T/C [11]: 105 % of control | T/C [12]: 103 % of control | T/C (dose: 400.0 mg/kg/injection, schedule: Q01DX005 (ip), vehicle: Klucel (hydroxypropylcellulose) (HPC)): 99 % of control

O=Cc1ccc(C(Cl)(Cl)Cl)nc1
T/C [3]: 105 % of control | T/C [4]: 110 % of control | T/C [5]: 115 % of control

NC(=S)c1ccccc1[N+](=O)[O-]
T/C (dose: 25.0 mg/kg/injection, schedule: Q01DX001 (ip), vehicle: saline): 104 % of control | T/C (dose: 25.0 mg/kg/injection, schedule: Q01DX001 (ip), vehicle: suspension in saline): 101 % of control | T/C (dose: 50.0 mg/kg/injection, schedule: Q01DX001 (ip), vehicle: saline): 104 % of control | T/C (dose: 50.0 mg/kg/injection, schedule: Q01DX001 (ip), vehicle: suspension in saline): 100 % of control | T/C (dose: 100.0 mg/kg/injection, schedule: Q01DX001 (ip), vehicle: saline): 101 % of control and 104 % of control | T/C (dose: 100.0 mg/kg/injection, schedule: Q01DX001 (ip), vehicle: suspension in saline): 102 % of control | T/C (dose: 200.0 mg/kg/injection, schedule: Q01DX001 (ip), vehicle: suspension in saline): 101 % of control
